pIC50: −log10 of the molar value.

As a reminder, the pIC50 is −log10 of the IC50, conventionally taken in molar units.

The assay relates to NLRP3 inflammasome. Kind of assay: IL-1β Secretion Assay (NLRP3-dependent IL-1β secretion in PMA-differentiated THP-1 cells, nigericin activation, HTRF). As to conditions: Homo sapiens, THP-1, THP-1 cells, 100 ng/mL PMA 24 h, compound 20 h, 2.5 μM Nigericin 3 h; read-out: IC50 IL-1β Inhibition. In kind it is cell-based. Here is the method:
Cells were washed 1× with 100 ul PBS and replaced with fresh RPMI+5% FBS. Compounds were serial diluted in DMSO with 3 fold dilution for a total of 7 concentrations.
Compounds, once produced and prepared according to the present invention, can be assessed in variety of assays to characterize their activities. […] IC50 values of IL1β inhibition were calculated from the plot of percentage of inhibition versus the inhibitor concentration by a logistics fit. TABLE I depict examples of compounds according to generic Formulae I. Data which is <1 nM is listed as *****; data 1-10 nM is listed as ****; data 10-100 nM is listed as ***, data 100-300 nM is listed as **, data >300 nM is listed as *.
On to `COc1cc(C(F)(F)F)ccc1-c1nnc(N[C@@H]2CCCN(C)C2)c2cnccc12` [Compound I-119], for which the pIC50 is 8.00 to 9.00. To `CN1CCC[C@@H](Nc2nnc(-c3ccc(C(F)(F)F)cc3OC(F)F)c3ccccc23)C1` [Compound I-120] belongs 8.00 to 9.00.

Turning to `CN1CCC[C@@H](Nc2nnc(-c3ccc(C(F)(F)F)cc3OC(F)F)c3ccncc23)C1` [Compound I-121], the pIC50 was more than 9.00.

As for `CN1CCC[C@@H](Nc2nnc(-c3ccc(C(F)(F)F)cc3OC(F)F)c3cnccc23)C1` [Compound I-122], the pIC50 is 8.00 to 9.00.

For `CN1CCC[C@@H](Nc2nnc(-c3ccc(C(F)(F)F)cc3N)c3ccccc23)C1` [Compound I-123], the pIC50 is 8.00 to 9.00.

With `CN1CCC[C@@H](Nc2nnc(-c3ccc(C(F)(F)F)cc3NS(C)(=O)=O)c3ccccc23)C1` [Compound I-124], the pIC50 is 8.00 to 9.00.

Turning to `CNc1cc(C(F)(F)F)ccc1-c1nnc(N[C@@H]2CCCN(C)C2)c2ccccc12` [Compound I-125], the pIC50 is 8.00 to 9.00.

As to `CC(=O)Nc1cc(C(F)(F)F)ccc1-c1nnc(N[C@@H]2CCCN(C)C2)c2ccccc12` [Compound I-126], the pIC50 is 8.00 to 9.00.

Turning to `CN1CCC[C@@H](Nc2nnc(-c3ccc(C(F)(F)F)cc3F)c3ccccc23)C1` [Compound I-127], the pIC50 was 8.00 to 9.00.

With `CN1CCC[C@@H](Nc2nnc(-c3ccc(C(F)(F)F)cc3F)c3ccncc23)C1` [Compound I-128], the pIC50 was 8.00 to 9.00. Turning to `CN1CCC[C@@H](Nc2nnc(-c3ccc(Cl)cc3F)c3ccncc23)C1` [Compound I-129], the pIC50 was more than 9.00. To `CN1CCC[C@@H](Nc2nnc(-c3ccc(C(F)(F)F)cc3C#N)c3ccncc23)C1` [Compound I-130] belongs 8.00 to 9.00; to `CN1CCC[C@@H](Nc2nnc(-c3ccc(C(F)(F)F)cc3C#N)c3ccccc23)C1` [Compound I-131], 8.00 to 9.00.

With `CN1CCC[C@@H](Nc2nnc(-c3ccc(Cl)cc3OC(F)F)c3ccncc23)C1` [Compound I-132], the pIC50 is more than 9.00.

For `CN1CCC[C@@H](Nc2nnc(-c3ccc(Cl)cc3OC(F)F)c3ccccc23)C1` [Compound I-133], the negative-log IC50 (pIC50) is 8.00 to 9.00. `Cc1ccc(-c2nnc(N[C@@H]3CCCN(C)C3)c3cnccc23)c(OC(F)F)c1` [Compound I-134]: the negative-log IC50 (pIC50) was 8.00 to 9.00. Then `Cc1ccc(-c2nnc(N[C@@H]3CCCN(C)C3)c3ccccc23)c(OC(F)F)c1` [Compound I-135], with 8.00 to 9.00; and `Cc1ccc(-c2nnc(N[C@@H]3CCCN(C)C3)c3cnccc23)c(C#N)c1` [Compound I-136], with 8.00 to 9.00. Regarding `CN1CCC[C@@H](Nc2nnc(-c3ccc(-n4nccn4)cc3O)c3ccncc23)C1` [Compound I-137], the pIC50 was more than 9.00. Then `CN1CCC[C@@H](Nc2nnc(-c3ccc(C(F)(F)F)cc3C(F)F)c3ccncc23)C1` [Compound I-138], with 8.00 to 9.00. Turning to `CN1CCC[C@H](Nc2nnc(-c3c(O)cccc3Cl)c3ccncc23)C1` [Compound I-139], the negative-log IC50 (pIC50) is 8.00 to 9.00. Then `CN1CCC[C@@H](Nc2nnc(-c3c(O)cccc3C#N)c3ccncc23)C1` [Compound I-140], with 8.00 to 9.00; and `CN1CCC[C@@H](Nc2nnc(-c3ccc(C(F)(F)F)cc3Cl)c3ccncc23)C1` [Compound I-143, (R)-1-(2-Chloro-4-(trifluoromethyl)phenyl)-N-(1-methylpiperidin-3-yl)pyrido[3,4-d]pyridazin-4-amine], with 8.00 to 9.00. To `COc1cc(C(F)(F)F)ccc1-c1nnc(N[C@@H]2CCCN(C)C2)c2c1cnn2C` [Compound I-144, 4-[2-Methoxy-4-(trifluoromethyl)phenyl]-1-methyl-N-[(3R)-1-methyl-3-piperidyl]pyrazolo[3,4-d]pyridazin-7-amine] belongs 8.00 to 9.00. Then `CN1CCC[C@@H](Nc2nnc(-c3ccc(C(F)(F)F)cc3C3=CCOC3)c3ccncc23)C1` [Compound I-145], with 8.00 to 9.00; and `CN1CCC[C@@H](Nc2nnc(-c3ccc(C(F)(F)F)cc3O)c3cnn(C)c23)C1` [Compound I-146, 2-[1-Methyl-7-[[(3R)-1-methyl-3-piperidyl]amino]pyrazolo[3,4-d]pyridazin-4-yl]-5-(trifluoromethyl)phenol], with more than 9.00. In the case of `C[C@@H]1COCCN1CCNc1nnc(-c2ccc(C(F)(F)F)cc2O)c2ccccc12` [Compound I-147], the pIC50 was 7.00 to 8.00. To `C[C@H]1COCCN1CCNc1nnc(-c2ccc(C(F)(F)F)cc2O)c2ccccc12` [Compound I-148] belongs 7.00 to 8.00; to `Oc1cc(C(F)(F)F)ccc1-c1nnc(NCC2CCN2)c2ccccc12` (centres unmarked) [Compound I-150], 7.00 to 8.00. For the molecule `CN1C[C@H](F)C[C@@H](Nc2nnc(-c3ccc(C(F)(F)F)cc3O)c3ccccc23)C1` [Compound I-151], the pIC50 is more than 9.00. To `CN(C)C1CCCN(c2nnc(-c3ccc(C(F)(F)F)cc3O)c3cnccc23)C1` (centres unmarked) [Compound I-152] belongs 8.00 to 9.00; to `COc1cc(C(F)(F)F)ccc1-c1nnc(N2CCNCC2)c2ccncc12` [Compound I-153], 7.00 to 8.00.

Consider `CN1CCC[C@@H](Nc2nnc(-c3ccc(C(F)(F)F)cc3O)c3c2N(C)CCC3)C1` [Compound I-154], for which the pIC50 was 8.00 to 9.00. `CN1CCC[C@H](Nc2nnc(-c3ccc(Cl)cc3O)c3c2N(C)CCC3)C1` [Compound I-155]: the pIC50 is 8.00 to 9.00. With `CN1CCC[C@@H](Nc2nnc(-c3ccc(C(F)(F)F)cc3S(N)(=O)=O)c3ccncc23)C1` [Compound I-156, (R)-2-(4-((1-methylpiperidin-3-yl)amino)pyrido[3,4-d]pyridazin-1-yl)-5-(trifluoromethyl)benzene-sulfonamide], the negative logarithm of the IC50 (pIC50) is 6.52 to 7.00. Then `CN1CCC[C@@H](Nc2nnc(-c3ccc(Cl)cc3C#N)c3ccncc23)C1` [Compound I-157], with 8.00 to 9.00. To `CN1CCC[C@@H](Nc2nnc(-c3ccc(C4CC4)cc3C(F)(F)F)c3ccncc23)C1` [Compound I-158] belongs more than 9.00; to `Cc1cncc(-c2nnc(N[C@@H]3CCCN(C)C3)c3ccccc23)c1O` [Compound I-159], 6.52 to 7.00. On to `COc1nc(C)ccc1-c1nnc(N[C@@H]2CCCN(C)C2)c2ccccc12` [Compound I-160], for which the pIC50 was 6.52 to 7.00. `CN1CCN(CCNc2nnc(-c3ccc(C(F)(F)F)cc3O)c3ccccc23)CC1` [Compound I-161]: the pIC50 was 7.00 to 8.00. Then `COc1cc(C(F)(F)F)ccc1-c1nnc(N2CCCC(N(C)C)C2)c2ccncc12` (centres unmarked) [Compound I-162], with 7.00 to 8.00; and `CN1CCC[C@@H](Nc2nnc(-c3ccc(Cl)c(N)c3O)c3ccccc23)C1` [Compound I-163, (R)-2-Amino-3-chloro-6-(4-((1-methylpiperidin-3-yl)amino)phthalazin-1-yl)phenol], with 7.00 to 8.00. As to `CN1C[C@@H](F)C[C@H](Nc2nnc(-c3ccc(C(F)(F)F)cc3O)c3ccccc23)C1` [Compound I-164], the pIC50 was 7.00 to 8.00. Turning to `Cc1ccc(-c2nnc(N[C@@H]3CCCN(C)C3)c3ccccc23)c(F)c1F` [Compound I-165], the pIC50 was 7.00 to 8.00. To `CN1CCC[C@@H](Nc2nnc(-c3ccc(C(F)(F)F)cc3)c3ccncc23)C1` [Compound I-166] belongs 8.00 to 9.00; to `CN1CCC[C@@H](Nc2nnc(-c3ccc(C#N)cc3OC(F)F)c3ccncc23)C1` [Compound I-167], 7.00 to 8.00; to `Cc1cccc(-c2nnc(N[C@@H]3CCCN(C)C3)c3cnccc23)c1OC(F)F` [Compound I-168], 7.00 to 8.00.

In the case of `CNS(=O)(=O)c1cc(C(F)(F)F)ccc1-c1nnc(N[C@@H]2CCCN(C)C2)c2cnccc12` [Compound I-169], the pIC50 is 7.00 to 8.00. To `CN1CCC[C@@H](Nc2nnc(-c3c(O)cc(Cl)cc3F)c3ccncc23)C1` [Compound I-170] belongs more than 9.00; to `COc1ccc(-c2nnc(N[C@@H]3CCCN(C)C3)c3cnccc23)c(OC(F)F)c1` [Compound I-171], more than 9.00; to `CN1CCC[C@@H](Nc2nnc(-c3ncc(Cl)cc3O)c3ccncc23)C1` [Compound I-172], 8.00 to 9.00. To `COCOc1cc(-c2ncco2)ccc1-c1nnc(N[C@H]2CCCN(C)C2)c2cnccc12` [Compound I-173] belongs 7.00 to 8.00; to `Cn1cc(CNc2nnc(-c3ccc(C(F)(F)F)cc3O)c3ccncc23)cn1` [Compound I-174], 7.00 to 8.00. To `COc1ccc(-c2nnc(N[C@@H]3CCCN(C)C3)c3cnccc23)c(O)c1` [Compound I-175] belongs more than 9.00. As to `CN1CCC[C@H](Nc2nnc(-c3ccc(-c4ncco4)cc3O)c3ccncc23)C1` [Compound I-176], the pIC50 was 8.00 to 9.00.

For the molecule `CN1CCC[C@@H](Nc2nnc(-c3ccc(C(F)(F)F)cc3C(F)(F)F)c3ccncc23)C1` [Compound I-177], the pIC50 is 8.00 to 9.00. To `Cc1cc(OC(F)F)c(-c2nnc(N[C@@H]3CCCN(C)C3)c3cnccc23)cc1F` [Compound I-178] belongs 8.00 to 9.00; to `Cc1cc(O)c(-c2nnc(N[C@@H]3CCCN(C)C3)c3cnccc23)c(F)c1` [Compound I-179], more than 9.00; to `Cn1cc(Nc2nnc(-c3ccc(C(F)(F)F)cc3O)c3ccncc23)cn1` [Compound I-180], 8.00 to 9.00. `COc1ccc(-c2nnc(N[C@@H]3CCCN(C)C3)c3cnccc23)c(C(F)(F)F)c1` [Compound I-181]: the pIC50 was 8.00 to 9.00.

For `CN1CCC[C@@H](Nc2nnc(-c3ccc(C(F)(F)F)cc3C(N)=O)c3ccncc23)C1` [Compound I-182], the pIC50 is 7.00 to 8.00. Regarding `CN1CCCCC(Nc2nnc(-c3ccc(C(F)(F)F)cc3O)c3cnccc23)C1` (centres unmarked) [Compound I-185], the pIC50 is 7.00 to 8.00.

For the origin of these results see patent publication US20240262806A1, “INHIBITORS OF NLRP3” (PTC THERAPEUTICS, INC., priority 2021, published 2024).
